These results are taken from publication PMC8042727, “Apoptosis-like cell death upon kinetoplastid induction by compounds isolated from the brown algae Dictyota spiralis” (Parasites & Vectors, 2021).

The structures appear in SMILES notation. Bounds are passed on as bounds.

In data set [1] the test system is L. amazonensis. On the set-up: method as in PMID 22970332. The settings on record: read-out: IC50 (inhibition of infection by L. amazonensis); cited from earlier work.
For data set [2], the system named is T. cruzi. Also noted: method as in PMID 23442789. The settings on record: read-out: IC50 against T. cruzi; cited from earlier work.
The nature of data set [3]: Cytotoxicity on macrophages (AlamarBlue, 24 h). It is filed as cell-based. The settings on record: mouse, J774A.1 macrophages, J774A.1, 24 h, read-out: CC50: murine macrophages. On the procedure: Cytotoxicity of the tested molecules was evaluated after 24 h using macrophages of the murine cell line J774.A1 (American Type Culture Collection #TIB-67). The cells were maintained in DMEM medium at 37 °C in a 5% CO2 humidified incubator. The viability of the macrophages was determined with the AlamarBlue assay and the emitted fluorescence was assayed in an Enspire microplate reader (PerkinElmer Inc.) at 570/585 nm. Briefly, 50 µl of macrophages was placed in a 96-well flat bottom plate at a density of 2 × 10^5/ml in RPMI medium supplemented with 10% FBS without phenol. Cells were allowed to adhere for 15 min, and their progress was checked using a Leika inverted microscope (Leika Camera AG, Wetzlar, Germany). At the same time, a serially dilution of the test compounds was made in a deep 96-well plate with the same medium, and then 50 µl of each serially diluted molecule was added to each well of the 96-well flat bottom plate. Finally, 10% of AlamarBlue was added to each well. The plates were incubated at 37 °C in 5% CO2 for 24 h. Dose–response curves were plotted and the 50% cytotoxic concentrations (CC50) were obtained. The analyses were performed in triplicate.

Data set [4] deals with Trypanosoma cruzi epimastigotes (Y strain). Description: In vitro evaluation on T. cruzi epimastigotes (AlamarBlue, 72 h). The class given is cell-based. The settings on record: nonlinear regression of AlamarBlue curve, read-out: IC90 Trypanosoma cruzi: epimastigote. On the procedure:
Experiments including in vitro activity assays of isolated compounds 1–3 were performed against the promastigote and amastigote stages of Leishmania amazonensis (MHOM/BR/77/LTB0016) and the epimastigote stage of Trypanosoma cruzi (Y strain). Promastigotes of L. amazonensis were cultured in Schneider’s medium (Sigma-Aldrich, St. Louis, MO, USA). Typanosoma cruzi strain Y was cultured in liver Infusion tryptose (LIT) medium. The three molecules 1-3 were tested against epimastigotes of T. cruzi. Briefly, the molecules were dissolved in DMSO in 96-well plates and a serially diluted concentration was made in 100 μl of LIT medium supplemented with 10% heat-inactivated FBS. In all tests, a maximum of 1% DMSO was used to dissolve the highest dose of the compounds without inducing any effects on the parasites; epimastigotes in the logarithmic growth phase were then counted, adjusted to 5 × 10^5 cells/ml, distributed on the previous 96-well plate and incubated at 27 °C for 72 h. The plate was observed under an inverted microscope after 72 h of incubation and analyzed statistically as described for the leishmanicidal test. Hoechst dye is a blue-fluorescent dye that stains condensed chromatin of apoptotic cells. To detect DNA condensation, the chromatin condensation/dead cell apoptosis kit was used (Invitrogen, Thermo Fisher Scientific, Waltham, MA, USA). Cells were incubated in the presence of the compounds to be tested at IC90. The IC90 values were determined using nonlinear regression of the AlamarBlue® curve. After 24 h of incubation, cells were harvested and resuspended in medium, following which 1 μl of Hoechst 33342 stock solution was added to parasites and incubated for 20 min. Results were analyzed by cell imaging using the Evos FL cell imaging system (Thermo Fisher Scientific). The experiments were repeated using a double-stain apoptosis detection kit (Hoechst 33342/PI; Thermo Fisher Scientific). […] A positive control was also tested: miltefosine (L. amazonensis) and benznidazole (T. cruzi).
(The colour change of resazurin is a common sign of viable cells or microbes.)

Data set [5] has as its system Trypanosoma cruzi. Description: Oxidative stress / ROS accumulation (CellROX Deep Red). It is filed as cell-based. The following applies: T. cruzi, IC90, 24 h. As to the method: (§1) The reagent used for this assay was a fluorogenic probe to measure cellular oxidative stress upon oxidation by reactive oxygen species (ROS). To perform the test, cells were incubated with the compounds to be tested, at IC90 for 24 h. The cells were centrifuged and resuspended in a volume of 50 μl, following which CellROX™ Deep Red oxidative stress reagent (Thermo-Fisher Scientific) was added to 96-well plates at […]. The plates were then incubated for 30 min at 37 °C. After incubation, the results were analyzed by cell imaging using the Evos cell imaging system. Cells treated with different compounds were compared with untreated control cells and the positive control. Fluorescence intensity was also measured using the Enspire multimode plate reader at excitation/emission wavelengths of 640/665 nm. Accumulation ROS at the cellular level is a good indicator of oxidative stress and is precursor to a chain reaction leading damage at the cellular level to proteins, nucleic acids, lipids, membrane and organelles. These cellular alterations can lead to activation of the cell death process. As such, ROS play an important role in cell signaling and the apoptosis pathway. An intracellular excess of ROS can be detected by the cell-permeable CellROX™ Deep Red reagent, which is a fluorogenic ROS sensor.

Data set [6] concerns Trypanosoma cruzi. The data set is described as follows: ATP level (CellTiter-Glo). The settings on record: T. cruzi, IC90, 24 h, relative to negative control. The class given is cell-based. On the procedure: The CellTiter-Glo® luminescent cell viability assay (Promega, WI, USA) was used to quantify the adenosine triphosphate (ATP) concentration. Cells of the kinetoplastid strains (for both L. amazonensis [2 × 10^6 cells/ml] and T. cruzi [5 × 10^5cells/ml]) were incubated for 24 h with the compounds to be tested, at IC90 and 26 °C. After incubation, the cells were centrifuged and resuspended in 100 μl. To this volume, we added 100 μl of the reactive in white 96-well plates. After incubation, the luminescence signal was measured using the Enspire multimode plate reader. The decrease in ATP level was expressed as a percentage relative to the negative control. Miltefosine and benznidazole were tested as the positive control for L. amazonensis and T. cruzi, respectively.
(In general: In ATP-based viability assays light output follows the ATP content of the culture.)

Data set [7] concerns Leishmania amazonensis promastigotes. The data set is described as follows: Anti-promastigotes assay (AlamarBlue, 72 h). It is filed as cell-based. As to the method:
Experiments including in vitro activity assays of isolated compounds 1–3 were performed against the promastigote and amastigote stages of Leishmania amazonensis (MHOM/BR/77/LTB0016) and the epimastigote stage of Trypanosoma cruzi (Y strain). Promastigotes of L. amazonensis were cultured in Schneider’s medium (Sigma-Aldrich, St. Louis, MO, USA). Typanosoma cruzi strain Y was cultured in liver Infusion tryptose (LIT) medium.
The bioassay was performed using the AlamarBlue® method as previously described. Promastigotes of L. amazonensis were grown at 26 °C in RPMI 1640 modified medium (Gibco BRL Life Technologies Inc., Gaithersburg, MD, USA) and supplemented with 10% heat-inactivated fetal bovine serum (FBS). Cultures in the logarithmic phase were seeded in sterilized 96-well microtiter plates (Corning™, Corning, NY, USA) (10^6 parasites/ml) containing the samples dissolved in 1% DMSO at the suitable concentration to be tested in serial dilutions, and Leishmania medium (RPMI 1640) was used to reach a final volume of 200 μl per well; then 10% of AlamarBlue® was added to the entire plate. After an incubation of 72 h, the plate was checked visually using an inverted microscope, then analyzed using an Enspire multimode plate reader (PerkinElmer, Inc., Waltham, MA, USA) at excitation and emission wavelengths of 570 and 585 nm, respectively. Dose–response curves were plotted, and the concentration at which one half of the maximal inhibitory effect was obtained (IC50) was determined. The analyses were performed in triplicate.
(§2) Hoechst dye is a blue-fluorescent dye that stains condensed chromatin of apoptotic cells. To detect DNA condensation, the chromatin condensation/dead cell apoptosis kit was used (Invitrogen, Thermo Fisher Scientific, Waltham, MA, USA). Cells were incubated in the presence of the compounds to be tested at IC90. The IC90 values were determined using nonlinear regression of the AlamarBlue® curve. After 24 h of incubation, cells were harvested and resuspended in medium, following which 1 μl of Hoechst 33342 stock solution was added to parasites and incubated for 20 min. Results were analyzed by cell imaging using the Evos FL cell imaging system (Thermo Fisher Scientific). The experiments were repeated using a double-stain apoptosis detection kit (Hoechst 33342/PI; Thermo Fisher Scientific). […] A positive control was also tested: miltefosine (L. amazonensis) and benznidazole (T. cruzi).

Data set [8] relates to Leishmania amazonensis amastigotes. The data set is described as follows: Anti-amastigotes assay (intra-macrophagic stage, J774A.1). The class given is cell-based. The following applies: J774.A1; Leishmania amazonensis, intracellular in J774A.1; read-out: IC50: amastigote. As to the method:
The three molecules 1-3 were tested against the intra-macrophagic stage of L. amazonensis as previously described. Briefly, in a 96-well, flat-bottom plate, macrophages of the J774A.1 cell line (American Type Culture Collection #TIB-67) were cultured at a density of 2 × 10^5 cells/ml in RPMI 1640 medium supplemented with 10% heat-inactivated FBS and incubated for 1 h at 37 °C in a 5% CO2 atmosphere to allow almost complete attachment of the cells. The macrophages were then infected with L. amazonensis promastigotes in the stationary phase (7-day-old culture) at a ratio of 1:10 (macrophage:parasite) at a concentration of 2 × 10^6 cells/ml and incubated at 37 °C in 5% CO2 for 24 h. Wells were washed with medium to remove external promastigotes. Thereafter, the infected macrophages were treated with the serially diluted concentrations of the pure compounds for 24 h, following which the medium was removed carefully and replaced by 30 μl of new medium containing 0.05% sodium dodecyl sulfate and the plate shaken for 30 s. Subsequently, 170 μl of Schneider’s medium was added to each well to give a final volume of 200 μl, and 20 μl of AlamarBlue® was added to the plate; the plate was then incubated at 26 °C for 72 h, following which the plates were analyzed using the same protocol as for the promastigotes assay.

Data set [9] concerns Leishmania amazonensis. The data set is described as follows: Oxidative stress / ROS accumulation (CellROX Deep Red). The class given is cell-based. The following applies: L. amazonensis, IC90, 24 h. As to the method:
as §1

Data set [10] concerns Leishmania amazonensis promastigotes. Description: DNA condensation assay (Hoechst 33342 / PI). It is filed as cell-based. The following applies: L. amazonensis promastigotes, IC90, 24 h. As to the method:
as §2
DNA condensation is an important cellular event, providing evidence of apoptotic cell death. Hoechst dye is a blue-fluorescent dye that stains condensed chromatin. […] Also, using propidium iodine (PI), it is possible to distinguish dead cells, which stain red when PI penetrates the nucleus. The results of staining were evaluated using cell imaging. Different microscopy images are regrouped in Fig. 2 (for L. amazonensis) and Fig. 3 (for T. cruzi). […] A clear reduction in cell number is also evident.

One may read the IC50 as the midpoint of a concentration-inhibition curve. Turning to `C[C@H]1/C=C/[C@@]2(C)CC[C@@H](C(C)(C)O)[C@@H]2[C@@H](O)C[C@](C)(O)/C=C/C1` [Dolabelladienetriol], the IC50 in data set [1] was 44 µM.
With `CC(C)=CC(=O)C/C(C)=C/CC/C(C)=C/CC/C(C)=C/CO` [Eleganolone], in data set [2], the half-maximal inhibitory concentration (IC50) was 58 µM.
The CC50 is the concentration at which the toxic effect on the cells reaches its halfway point. Broadly, the IC90 is the concentration needed for an effect of 90%. Consider `O=C(Cn1ccnc1[N+](=O)[O-])NCc1ccccc1` [Benznidazole, reference compound], for which, in [3], the 50% cytotoxic concentration (CC50) at 24 h was determined as 400 µM. The IC90 in data set [4] turned out to be 25.6 µM. Also, the “ROS accumulation (fluorescence vs negative control)” value in [5] is given as “significant increase in fluorescence”. In [6], the “decrease in ATP concentration” value is on record as greater than 80%.
Consider `CCCCCCCCCCCCCCCCOP(=O)([O-])OCC[N+](C)(C)C` [Miltefosine, reference compound], for which the CC50 at 24 h in data set [3] is 72.2 µM. In addition, the 50% inhibitory concentration (IC50) worked out at 6.47 ± 0.58 µM in [7] (72 h, read-out: IC50: promastigote) and 3.11 µM in data set [8]. Further, the 90% effect concentration (IC90) in data set [7] (nonlinear regression of AlamarBlue curve, read-out: IC90 Leishmania amazonensis: promastigote) was 9.63 µM. Further, the “ROS accumulation (fluorescence vs negative control)” value in [9] is recorded as “more remarkable”. Further, the “chromatin condensation / cell death stage (Hoechst/PI staining)” value in data set [10] is “dead cells”.
